# Data reported in patent publication US6340654B1, “Freshness-retaining agent and method for agricultural/horticultural products” (priority 1999, dated 2002).
# Tested on: fresh pieces of apple (variety: Mutsu)
# Assay: Ethylene concentration lowering effect for apple (ethylene in hermetically closed jar, tubular gas detector)
# Conditions: 23° C.
# [1] = Table 1, 20 g apple pieces in closed 150-mL jar, 3 g agent
# [2] = Table 2, vs. mixing ratio, 3 g agent per 20 g apple
# [3] = Table 9, single substances 3 g, mixtures 1.5 g + 1.5 g, 20 g apple
# [4] = Table 10, vs. mixing ratio, 3 g agent per 20 g apple
# Protocol: Mouths of those jars were then hermetically closed with “[sequence]” (trademark; product of American National Can Company). Those jars were left over at 23° C., and on DAY 1, DAY 3 and DAY 6, the concentrations of ethylene in the respective jars were measured by a tubular gas detector (manufactured by Gastec, Inc.). The concentration of ethylene in a jar with “KIMWIPE” alone hermetically placed therein was also measured as a control.
# Mouths of those jars were then hermetically closed with “[sequence]”. Those jars were left over at 23° C., and on DAY 1, DAY 3 and DAY 6, the concentrations of ethylene in the respective jars were measured by the tubular gas detector (manufactured by Gastec, Inc.). The concentration of ethylene in a jar with “KIMWIPE” alone hermetically placed therein was also measured as a control.
# In 150-mL jars with 20 g per jar of fresh pieces of apple (variety: Mutsu) placed therein, portions (0.5 to 3 g) of a freshness-retaining agent [cinnamic acid:sodium hydrogen-carbonate=1:2 (by weight)] according to the present invention—all of which were individually wrapped with “KIMWIPE” (trademark for laboratory paper produced by Jujo-Kimberly Co., Ltd.)—were placed, respectively. Mouths of those jars were then hermetically closed with “[sequence]”. Those jars were left over at 23° C., and on DAY 1 and DAY 3, the concentrations of ethylene in the respective jars were measured by the tubular gas detector (manufactured by Gastec, Inc.). The concentration of ethylene in a jar with “KIMWIPE” alone hermetically placed therein was also measured as a control.
# In 150-mL jars with 20 g per jar of fresh pieces of apple (variety: Mutsu) placed therein, three freshness-retaining agents according to the present invention [1:3 (by molar ratio) mixtures of cinnamic acid and hydrogencarbonates]—all of which were individually wrapped with “KIMWIPE” (trademark for laboratory paper produced by Jujo-Kimberly Co., Ltd.)—were placed, respectively. Mouths of those jars were then hermetically closed with “[sequence]”. Those jars were left over at 23° C., and on DAY 1 and DAY 3, the concentrations of ethylene in the respective jars were measured by the tubular gas detector (manufactured by Gastec, Inc.). The concentration of ethylene in a jar with “KIMWIPE” alone hermetically placed therein was also measured as a control.
# Mouths of those jars were then hermetically closed with “[sequence]”.
smiles,measurement,setting,value
"O=C(O)C=Cc1ccccc1 [Cinnamic acid, cinnamic acid]",Concentration of ethylene DAY 1,[1],100 ppm
same,Concentration of ethylene DAY 2,"Table 1, DAY 2, 20 g apple pieces in closed 150-mL jar, 3 g agent",100 ppm
same,Concentration of ethylene DAY 6,[1],100 ppm
same,Concentration of ethylene DAY 1,[2],38 ppm
same,Concentration of ethylene DAY 3,[2],50 ppm
same,Concentration of ethylene DAY 6,[2],50 ppm
"O=C(O)CC(O)(CC(=O)O)C(=O)O [Citric acid, citric acid]",Concentration of ethylene DAY 1,[3],275 ppm
same,Concentration of ethylene DAY 3,[3],125 ppm
"O=C([O-])CC(O)(CC(=O)[O-])C(=O)O.[Na+].[Na+] [Disodium citrate, disodium citrate]",Concentration of ethylene DAY 1,[3],250 ppm
same,Concentration of ethylene DAY 3,[3],150 ppm
"O=C([O-])CC(O)(CC(=O)O)C(=O)O.[Na+] [Monosodium citrate, monosodium citrate]",Concentration of ethylene DAY 1,[3],250 ppm
same,Concentration of ethylene DAY 3,[3],125 ppm
"O=C([O-])O.[Na+] [Sodium hydrogencarbonate, sodium hydrogencarbonate]",Concentration of ethylene DAY 1,[2],50 ppm
same,Concentration of ethylene DAY 3,[2],75 ppm
same,Concentration of ethylene DAY 6,[2],125 ppm
same,Concentration of ethylene DAY 1,[3],275 ppm
same,Concentration of ethylene DAY 3,[3],150 ppm
same,Concentration of ethylene DAY 1,[4],275 ppm
same,Concentration of ethylene DAY 3,[4],150 ppm
same,Concentration of ethylene DAY 6,[4],150 ppm
